The record followed here is PubChem BioAssay (NCI).

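All cell lines were grown in 96-well plates and treated with compound for 48 hours. TGI denotes the concentration required for complete inhibition of growth.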

Some test systems named below: DMS 273 small cell lung; LXFL 529 NSCLC; M19-MEL melanoma; SNB-78 CNS; DMS 114 small cell lung; P388 leukemia; SN12K1 renal; HOP-18 NSCLC; RXF-631 renal; P388/ADR leukemia.
What all share (experiment): NCI tumour cell line growth inhibition, 48 h

In the case of `O=C(Nc1cccc([N+](=O)[O-])c1)C(=O)C(C(=O)c1ccccc1F)C1OC(=O)C2C=CC=CC21` (stereo unspecified), the TGI in the assay with DMS 273 small cell lung, in the assay with LXFL 529 NSCLC, in the assay on M19-MEL melanoma and in the assay with SNB-78 CNS was greater than 100 µM each time.
`Nc1cccc2c1C1=NNC(=O)CC1C2` (stereo unspecified): the TGI with DMS 114 small cell lung, with DMS 273 small cell lung, in the assay on M19-MEL melanoma, in the assay on P388 leukemia, in the assay on SN12K1 renal and with SNB-78 CNS was greater than 100 µM each time.
Turning to `CC(=O)N1CC(=O)NC1=S`, the TGI in the assay with DMS 114 small cell lung, with DMS 273 small cell lung, with LXFL 529 NSCLC, in the assay with M19-MEL melanoma and in the assay with SNB-78 CNS was greater than 100 µM in each case.
Regarding `N#CCCOCN(CO)c1nc(N(CO)COCCC#N)nc(N(CO)COCCC#N)n1`, the TGI was 52.4 µM with DMS 114 small cell lung; 32.8 µM in the assay on DMS 273 small cell lung; 59.6 µM with HOP-18 NSCLC; 42.5 µM with LXFL 529 NSCLC; 50 µM in the assay on M19-MEL melanoma; greater than 100 µM with SNB-78 CNS.
In the case of `CCOC(=O)C(=O)Nc1c(CC)cccc1C(C)CC` (stereo unspecified), the TGI in the assay with DMS 114 small cell lung, in the assay with DMS 273 small cell lung, with HOP-18 NSCLC, in the assay on LXFL 529 NSCLC, with M19-MEL melanoma and in the assay on RXF-631 renal was greater than 100 µM each time. The same molecule gave a TGI in the assay on SNB-78 CNS greater than 100 µM.
For the molecule `Cc1ccc2ccc3ccc(C)nc3c2n1`, the TGI in the assay on DMS 114 small cell lung is 1.34 µM; with DMS 273 small cell lung it was greater than 100 µM; in the assay on HOP-18 NSCLC it was greater than 100 µM; with LXFL 529 NSCLC, greater than 100 µM; with M19-MEL melanoma it was greater than 100 µM; in the assay with SNB-78 CNS, greater than 100 µM.
In the case of `C=Cc1cc(OC)c2c(c1)c(=O)oc1c2cc(OC)c2c(O)ccc(C3OC(C)C(O)C(C)(O)C3O)c21` (stereo unspecified), the TGI in the assay on DMS 114 small cell lung came out at 0.0393 µM; in the assay with DMS 273 small cell lung it was 0.139 µM; with HOP-18 NSCLC, 0.392 µM; in the assay on M19-MEL melanoma it was 0.16 µM; in the assay on P388 leukemia it was 0.529 µM; in the assay on P388/ADR leukemia, 0.804 µM. In the assay with SN12K1 renal, this molecule yielded a TGI of 0.131 µM.
